Results on six molecules are retold here after ChEMBL document CHEMBL5236604, “Cage hydrocarbons as linkers in dimeric drug design: Case studies with trimethoprim and tedizolid” (2023).

For orientation: MIC means the least concentration at which growth counts as inhibited.

In brackets after ≈: the same amount, converted by molar mass. Activity calls are given as the source filed them. The calls are words filed in the database; no cut-off is given here.

For assay [1], the system named is Staphylococcus aureus. The assay is described as follows: Antibacterial activity against Staphylococcus aureus. The assay is classed as functional, organism-based.
The test system of assay [2] is Enterococcus faecium. Nature of the assay: Antibacterial activity against Enterococcus faecium. The class given is functional, organism-based.
Assay [3] deals with Staphylococcus aureus. Nature of the assay: Antibacterial activity against trimethoprim sensitive Staphylococcus aureus assessed as inhibition of bacterial growth. The class given is functional.
Assay [4] has as its system Staphylococcus aureus. The assay is described as follows: Antibacterial activity against trimethoprim resistant Staphylococcus aureus assessed as inhibition of bacterial growth. The class given is functional.
The test system of assay [5] is Enterococcus faecium. The assay is described as follows: Antibacterial activity against trimethoprim sensitive Enterococcus faecium assessed as inhibition of bacterial growth. The class given is functional.
In assay [6] the test system is Enterococcus faecium. The assay is described as follows: Antibacterial activity against trimethoprim resistant Enterococcus faecium assessed as inhibition of bacterial growth. The assay is classed as functional.
The test system of assay [7] is Acinetobacter baumannii. Nature of the assay: Antibacterial activity against trimethoprim sensitive Acinetobacter baumannii assessed as inhibition of bacterial growth. The class given is functional.
For assay [8], the system named is Acinetobacter baumannii. Nature of the assay: Antibacterial activity against trimethoprim resistant Acinetobacter baumannii assessed as inhibition of bacterial growth. The assay is classed as functional.

`CC(C)(C)[Si](C)(C)OC[C@H]1CN(c2ccc(O)c(F)c2)C(=O)O1`: the outcome in the assay on Staphylococcus aureus [1] and in the assay with Enterococcus faecium [2] was inactive.
As for `COc1cc(Cc2cnc(N)nc2N)cc(OC)c1OC(=O)C12CC3CC(C1)CC(C(=O)Oc1c(OC)cc(Cc4cnc(N)nc4N)cc1OC)(C3)C2`, the MIC was 12.5 µM (≈ 9.26 µg/mL) with Staphylococcus aureus [3]; greater than 25 µM with Staphylococcus aureus [4]; 6.25 µM (≈ 4.63 µg/mL) in the assay on Enterococcus faecium [5]; 50 µM (≈ 37 µg/mL) with Enterococcus faecium [6]; greater than 100 µM with Acinetobacter baumannii [7].
`COc1cc(Cc2cnc(N)nc2N)cc(OC)c1OC` [TRIMETHOPRIM]: the MIC is 6.25 µM (≈ 1.81 µg/mL) in the assay with Staphylococcus aureus [3]; 12.5 µM (≈ 3.63 µg/mL) with Staphylococcus aureus [4]; 0.78 µM (≈ 0.226 µg/mL) in the assay on Enterococcus faecium [5]; 100 µM (≈ 29 µg/mL) in the assay with Enterococcus faecium [6]; 6.25 µM (≈ 1.81 µg/mL) with Acinetobacter baumannii [7]; greater than 400 µM in the assay on Acinetobacter baumannii [8].
Consider `COc1cc(Cc2cnc(N)nc2N)cc(OC)c1OC(=O)C12CC(C(=O)Oc3c(OC)cc(Cc4cnc(N)nc4N)cc3OC)(C1)C2`, for which the MIC in the assay on Staphylococcus aureus [3] was 25 µM (≈ 16.8 µg/mL); in the assay on Staphylococcus aureus [4] it was greater than 100 µM; in the assay with Enterococcus faecium [5], 1.56 µM (≈ 1.05 µg/mL); in the assay with Enterococcus faecium [6] it was greater than 50 µM; in the assay with Acinetobacter baumannii [7], greater than 100 µM.
Consider `COc1cc(Cc2cnc(N)nc2N)cc(OC)c1OC(=O)C12CCC(C(=O)Oc3c(OC)cc(Cc4cnc(N)nc4N)cc3OC)(CC1)CC2`, for which the MIC in the assay on Staphylococcus aureus [3] is greater than 100 µM; in the assay on Enterococcus faecium [5], 3.12 µM (≈ 2.23 µg/mL); in the assay on Enterococcus faecium [6] it was greater than 100 µM; with Acinetobacter baumannii [7], greater than 100 µM.
On to `COc1cc(Cc2cnc(N)nc2N)cc(OC)c1O` [4-HYDROXYTRIMETHOPRIM], for which the MIC is 12.5 µM (≈ 3.45 µg/mL) with Staphylococcus aureus [3]; greater than 25 µM in the assay with Staphylococcus aureus [4]; 3.12 µM (≈ 0.863 µg/mL) with Enterococcus faecium [5]; 60 µM (≈ 16.6 µg/mL) in the assay on Enterococcus faecium [6]; greater than 100 µM in the assay on Acinetobacter baumannii [7].
